Experimental data taken from patent US6440468B1, “Method for obtaining apolar and polar extracts of curcuma and applications thereof” (A.S.A.C. Pharmaceutical International, A.I.E., priority 1994, dated 2002).

Assay: Thermal stability of curcuminoids in the apolar fraction
Format: physicochemical
Details: stabilized as of 24-48 hours of exposure
Method: Initially, a greater degradation is produced which is stabilized as of 24-48 hours of exposure. Degradation is kept at 2% for temperatures lower than 50° C. and at 4% at 80° C.

thermal degradation of curcuminoids (80° C): 4% | thermal degradation of curcuminoids (temperatures lower than 50° C): 2%
SMILES: COc1cc(/C=C/C(=O)CC(=O)/C=C/c2ccc(O)c(OC)c2)ccc1O [curcumin, curcumin (dipheruloylmethane)]
